Patent US20240238236A1, “COMPOSITION FOR REGULATING CARBOHYDRATE METABOLISM, AND METHOD FOR ASSESSING CARBOHYDRATE METABOLISM CONDITIONS OF SUBJECT” (KAGAMI INC., priority 2021, published 2024)

Legend:
Assay type in all cases: in vivo
[1] = test system: carbohydrate metabolism-modified mice (type 1 diabetes model); experiment: death during D-amino acid administration in drinking water; settings: 80 mM in drinking water (n=4); within 18 weeks
Procedure: (§1) After removing the left kidney of C57BL/6(B6) mice (−2 weeks: −2 w), a group administered an aqueous solution of 20 mM D-alanine (n=5 to 8), 80 mM D-alanine (n=3 to 4), 20 mM D-serine (n=6 to 7) or 80 mM D-serine (n=4) as drinking water, and a group administered water as drinking water as a control (n=8) were administered streptozotocin (STZ) at 50 mg/kg (0 weeks) to create carbohydrate metabolism-modified model mice, and insulin tolerance testing (−1 weeks, 2 weeks), casual blood glucose measurement (0 weeks to 18 weeks), fasting blood glucose measurement (0 weeks to 16 weeks) and systolic/diastolic blood pressure measurement (−1 weeks to 18 weeks) were conducted as appropriate.

[2] = test system: carbohydrate metabolism-modified mice (type 1 diabetes model); experiment: casual blood glucose measurement; settings: for increase in casual blood glucose level: 20 mM in drinking water on D-amino acid-free diet, after STZ (2 weeks); for casual blood glucose level: vs water control
Procedure: (§3) After removing the left kidney of C57BL/6(B6) mice (−2 weeks: −2 w), a D-amino acid-eliminated diet (D-amino acid-free diet, D-fd) was provided, and groups administered aqueous solution of 20 mM D-alanine (n=5), 20 mM D-serine (n=5), 20 mM D-proline (n=5), 20 mM D-leucine (n=5) or water (n=6 to 14) in drinking water, and a group given normal diet and water as a control (n=5), were administered streptozotocin (STZ) at 50 mg/kg (0 weeks) to create carbohydrate metabolism-modified model mice, and blood insulin measurement (−1 weeks, 3 weeks), casual blood glucose measurement (−1 weeks, 2 weeks), fasting blood glucose measurement (−1 weeks, 3 weeks) and measurement of insulin and glucagon in pancreatic islets of Langerhans by antibody staining, were conducted as appropriate.

[3] = test system: carbohydrate metabolism-modified mice (type 1 diabetes model); experiment: fasting blood glucose measurement; settings: vs water control
Procedure: as §3

[4] = test system: carbohydrate metabolism-modified mice (type 1 diabetes model); experiment: insulin tolerance testing (ITT); settings: before and at 2 weeks after STZ, vs water control; for blood glucose level and insulin resistance in insulin tolerance testing (ITT): 20 mM in drinking water
Procedure: (§2) After removing the left kidney of C57BL/6(B6) mice (−2 weeks: −2 w), a group administered Risperidone aqueous solution as a DAO inhibitor in drinking water (n=3 to 7) and a group administered water as drinking water (n=9 to 11) as a control were administered streptozotocin (STZ) at 50 mg/kg (0) weeks) to create carbohydrate metabolism-modified model mice, and insulin tolerance testing (−1 weeks, 2 weeks), intra-peritoneal glucose tolerance testing (−1 weeks), casual blood glucose measurement (−1 weeks, 2 weeks, 6 weeks) and fasting blood glucose measurement (−1 weeks, 2 weeks) were conducted as appropriate.
as §1

[5] = test system: carbohydrate metabolism-modified mice (type 1 diabetes model); experiment: intra-peritoneal glucose tolerance testing (IPGTT); settings: Risperidone in drinking water; B6 mice, -1 weeks; vs water control
Procedure: as §2

[6] = test system: db/db mice (type 2 diabetes model); experiment: casual blood glucose in db/db mice; settings: 20 mM in drinking water, 5 to 18 weeks, vs control group
[7] = test system: carbohydrate metabolism-modified mice (type 1 diabetes model); experiment: systolic/diastolic blood pressure measurement; settings: 80 mM in drinking water; 10 weeks after STZ; vs B6 group
Procedure: as §1

[8] = 20 mM or 80 mM in drinking water, dose-dependent, after STZ (0 to 18 weeks)
[9] = 20 mM or 80 mM in drinking water, dose-dependent, after STZ (0 to 16 weeks)

SMILES	death of animals (toxicity) [1]	increase in casual blood glucose level [2]	casual blood glucose level [2, 8]	fasting blood glucose level [3, 9]	blood glucose level and insulin resistance in insulin tolerance testing (ITT) [4]	blood glucose level in intra-peritoneal glucose tolerance testing (IPGTT) [5]	casual blood glucose level ([2]; Risperidone in drinking water, after STZ (2, 6 weeks))	fasting blood glucose level ([3]; Risperidone in drinking water, after STZ (2 weeks))	blood glucose level in insulin tolerance testing (ITT) ([4]; Risperidone aqueous solution in drinking water, left kidney removed, STZ 50 mg/kg B6 mice)	casual blood glucose level [6]	diastolic pressure [7]	systolic pressure [7]
N[C@H](CO)C(=O)O [D-serine]	one individual died within 18 weeks	suppressed	remained at a low levels	remained at a low levels	lower blood glucose levels and lower insulin resistance compared to the control group							
CC(C)C[C@@H](N)C(=O)O [D-leucine]		suppressed										
Cc1nc2n(c(=O)c1CCN1CCC(c3noc4cc(F)ccc34)CC1)CCCC2 [Risperidone, reference compound]						lower values for blood glucose level than the control group	remained at low levels in the Risperidone group compared to the control group	remained at low levels in the Risperidone group compared to the control	lower blood glucose levels compared to the control group			
C[C@@H](N)C(=O)O [D-alanine]		suppressed	remained at a low levels	remained at a low levels	lower blood glucose levels and lower insulin resistance compared to the control group					lower levels	lowered	lowered
